From the kinase profiling compilation of Christmann-Franck et al. (2016)

Key:
Experiment in all cases: KINOMEscan competition binding
Details in all cases: compound 1.0 µM
[1] = system: ABL1 (human), P00519 [F317I]
[2] = system: ABL1 (human), P00519 [H396P]
AKT2 (human) = AKT2 (human) (UniProt P31751)
BMPR1B (human) = BMPR1B (human) (UniProt O00238)
BRSK2 (human) = BRSK2 (human) (UniProt Q8IWQ3)
BTK (human) = BTK (human) (UniProt Q06187)
CAMK1G (human) = CAMK1G (human) (UniProt Q96NX5)
CSNK1G3 (human) = CSNK1G3 (human) (UniProt Q9Y6M4)
CSNK2A1 (human) = CSNK2A1 (human) (UniProt P68400)
DCLK1 (human) = DCLK1 (human) (UniProt O15075)
DMPK (human) = DMPK (human) (UniProt Q09013)
[3] = system: EGFR (human), P00533 [G719C]
[4] = system: EGFR (human), P00533 [T790M/L858R]
EPHA1 (human) = EPHA1 (human) (UniProt P21709)
ERBB2 (human) = ERBB2 (human) (UniProt P04626)
ERBB3 (human) = ERBB3 (human) (UniProt P21860)
ERBB4 (human) = ERBB4 (human) (UniProt Q15303)
FGFR4 (human) = FGFR4 (human) (UniProt P22455)
[5] = system: FLT3 (human), P36888 [D835Y]
[6] = system: FLT3 (human), P36888 [ITD]
[7] = system: FLT3 (human), P36888 [N841I]
FRK (human) = FRK (human) (UniProt P42685)
HIPK2 (human) = HIPK2 (human) (UniProt Q9H2X6)
IRAK1 (human) = IRAK1 (human) (UniProt P51617)
[8] = molecular target: JAK1 JH1 catalytic (human) (UniProt P23458)
MAP2K1 (human) = MAP2K1 (human) (UniProt Q02750)
MAP2K3 (human) = MAP2K3 (human) (UniProt P46734)
MAPK11 (human) = MAPK11 (human) (UniProt Q15759)
MAPK7 (human) = MAPK7 (human) (UniProt Q13164)
MARK1 (human) = MARK1 (human) (UniProt Q9P0L2)
MARK2 (human) = MARK2 (human) (UniProt Q7KZI7)
NEK2 (human) = NEK2 (human) (UniProt P51955)
NUAK2 (human) = NUAK2 (human) (UniProt Q9H093)
[9] = system: RET (human), P07949 [M918T]
RPS6KA2 KD2 (human) = RPS6KA2 KD2 (human) (UniProt Q15349)
STK32C (human) = STK32C (human) (UniProt Q86UX6)
[10] = molecular target: TYK2 JH2 pseudokinase (human) (UniProt P29597)
ULK2 (human) = ULK2 (human) (UniProt Q8IYT8)
YES1 (human) = YES1 (human) (UniProt P07947)
ZAP70 (human) = ZAP70 (human) (UniProt P43403)

Sequence of NEK2 (human) (P51955 whole entry, looked up): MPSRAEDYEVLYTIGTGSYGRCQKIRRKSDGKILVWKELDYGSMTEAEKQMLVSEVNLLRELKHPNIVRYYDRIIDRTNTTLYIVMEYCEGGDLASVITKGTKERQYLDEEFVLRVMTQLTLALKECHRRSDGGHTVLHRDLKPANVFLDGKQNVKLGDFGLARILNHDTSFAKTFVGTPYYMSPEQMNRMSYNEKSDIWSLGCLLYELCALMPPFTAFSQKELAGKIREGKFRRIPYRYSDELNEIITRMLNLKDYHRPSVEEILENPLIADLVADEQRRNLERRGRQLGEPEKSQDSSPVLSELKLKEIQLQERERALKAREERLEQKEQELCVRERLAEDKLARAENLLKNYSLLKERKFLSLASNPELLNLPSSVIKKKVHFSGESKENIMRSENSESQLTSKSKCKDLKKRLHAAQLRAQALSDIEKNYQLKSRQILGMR
Sequence of BTK (human) (Q06187 whole entry, looked up): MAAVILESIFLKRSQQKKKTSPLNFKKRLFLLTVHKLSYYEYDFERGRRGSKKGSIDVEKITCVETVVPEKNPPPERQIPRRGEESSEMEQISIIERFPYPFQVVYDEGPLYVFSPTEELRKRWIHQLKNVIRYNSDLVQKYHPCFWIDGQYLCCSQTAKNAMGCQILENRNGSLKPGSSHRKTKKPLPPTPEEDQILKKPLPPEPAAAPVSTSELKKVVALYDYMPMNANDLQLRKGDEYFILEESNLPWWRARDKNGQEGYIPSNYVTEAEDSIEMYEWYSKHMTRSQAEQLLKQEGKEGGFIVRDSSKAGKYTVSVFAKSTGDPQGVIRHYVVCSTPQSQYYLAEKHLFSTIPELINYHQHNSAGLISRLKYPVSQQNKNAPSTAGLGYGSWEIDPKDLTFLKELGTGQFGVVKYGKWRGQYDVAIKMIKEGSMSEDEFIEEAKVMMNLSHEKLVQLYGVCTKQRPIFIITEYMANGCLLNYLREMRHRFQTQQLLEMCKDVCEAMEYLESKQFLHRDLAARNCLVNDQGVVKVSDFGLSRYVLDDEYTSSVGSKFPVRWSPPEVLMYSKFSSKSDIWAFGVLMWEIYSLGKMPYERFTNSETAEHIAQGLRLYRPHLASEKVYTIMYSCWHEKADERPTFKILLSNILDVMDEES
Sequence of MARK1 (human) (Q9P0L2 whole entry, looked up): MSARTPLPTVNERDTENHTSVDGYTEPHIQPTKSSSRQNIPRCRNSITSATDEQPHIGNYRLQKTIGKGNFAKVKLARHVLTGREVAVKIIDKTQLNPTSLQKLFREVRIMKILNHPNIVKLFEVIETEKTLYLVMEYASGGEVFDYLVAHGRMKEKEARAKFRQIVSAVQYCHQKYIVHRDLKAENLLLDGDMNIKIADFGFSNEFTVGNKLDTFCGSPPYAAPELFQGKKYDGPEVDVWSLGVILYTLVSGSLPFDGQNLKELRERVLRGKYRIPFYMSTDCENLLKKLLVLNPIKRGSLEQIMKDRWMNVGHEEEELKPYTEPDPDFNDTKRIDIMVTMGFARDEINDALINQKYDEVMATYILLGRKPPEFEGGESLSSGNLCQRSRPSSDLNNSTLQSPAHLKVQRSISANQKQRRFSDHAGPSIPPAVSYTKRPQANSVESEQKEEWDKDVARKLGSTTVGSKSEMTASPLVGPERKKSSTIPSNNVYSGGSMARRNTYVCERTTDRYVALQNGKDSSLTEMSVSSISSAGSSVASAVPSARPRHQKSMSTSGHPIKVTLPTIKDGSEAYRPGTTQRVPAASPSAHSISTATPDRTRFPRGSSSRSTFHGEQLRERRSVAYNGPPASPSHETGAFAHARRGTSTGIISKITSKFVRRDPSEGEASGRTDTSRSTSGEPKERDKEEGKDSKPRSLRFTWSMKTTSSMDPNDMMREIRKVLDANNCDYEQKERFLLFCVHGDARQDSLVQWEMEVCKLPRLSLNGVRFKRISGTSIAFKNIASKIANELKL
Sequence of FGFR4 (human) (P22455 whole entry, looked up): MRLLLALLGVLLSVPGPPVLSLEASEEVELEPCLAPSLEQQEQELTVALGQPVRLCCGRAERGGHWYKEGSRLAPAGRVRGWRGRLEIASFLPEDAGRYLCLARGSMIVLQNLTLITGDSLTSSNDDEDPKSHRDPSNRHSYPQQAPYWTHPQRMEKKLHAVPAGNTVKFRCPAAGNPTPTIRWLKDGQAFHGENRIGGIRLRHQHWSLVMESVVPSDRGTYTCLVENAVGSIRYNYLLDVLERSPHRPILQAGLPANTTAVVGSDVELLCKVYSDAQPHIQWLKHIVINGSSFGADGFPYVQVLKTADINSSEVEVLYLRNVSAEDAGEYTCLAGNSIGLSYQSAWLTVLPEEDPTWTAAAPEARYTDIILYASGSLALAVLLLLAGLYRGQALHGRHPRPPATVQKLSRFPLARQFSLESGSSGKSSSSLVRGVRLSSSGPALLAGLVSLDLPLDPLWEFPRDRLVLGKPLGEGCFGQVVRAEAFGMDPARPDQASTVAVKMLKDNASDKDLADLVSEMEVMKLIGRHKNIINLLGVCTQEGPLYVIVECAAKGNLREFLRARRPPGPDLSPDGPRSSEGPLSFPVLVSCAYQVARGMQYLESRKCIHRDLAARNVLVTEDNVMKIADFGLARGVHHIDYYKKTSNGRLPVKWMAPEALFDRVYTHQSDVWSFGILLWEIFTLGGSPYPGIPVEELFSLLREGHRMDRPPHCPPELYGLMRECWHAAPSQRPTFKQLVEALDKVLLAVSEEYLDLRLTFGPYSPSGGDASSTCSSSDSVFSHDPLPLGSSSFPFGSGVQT
Sequence of RET (human), P07949 [M918T] (P07949 whole entry M918T, looked up): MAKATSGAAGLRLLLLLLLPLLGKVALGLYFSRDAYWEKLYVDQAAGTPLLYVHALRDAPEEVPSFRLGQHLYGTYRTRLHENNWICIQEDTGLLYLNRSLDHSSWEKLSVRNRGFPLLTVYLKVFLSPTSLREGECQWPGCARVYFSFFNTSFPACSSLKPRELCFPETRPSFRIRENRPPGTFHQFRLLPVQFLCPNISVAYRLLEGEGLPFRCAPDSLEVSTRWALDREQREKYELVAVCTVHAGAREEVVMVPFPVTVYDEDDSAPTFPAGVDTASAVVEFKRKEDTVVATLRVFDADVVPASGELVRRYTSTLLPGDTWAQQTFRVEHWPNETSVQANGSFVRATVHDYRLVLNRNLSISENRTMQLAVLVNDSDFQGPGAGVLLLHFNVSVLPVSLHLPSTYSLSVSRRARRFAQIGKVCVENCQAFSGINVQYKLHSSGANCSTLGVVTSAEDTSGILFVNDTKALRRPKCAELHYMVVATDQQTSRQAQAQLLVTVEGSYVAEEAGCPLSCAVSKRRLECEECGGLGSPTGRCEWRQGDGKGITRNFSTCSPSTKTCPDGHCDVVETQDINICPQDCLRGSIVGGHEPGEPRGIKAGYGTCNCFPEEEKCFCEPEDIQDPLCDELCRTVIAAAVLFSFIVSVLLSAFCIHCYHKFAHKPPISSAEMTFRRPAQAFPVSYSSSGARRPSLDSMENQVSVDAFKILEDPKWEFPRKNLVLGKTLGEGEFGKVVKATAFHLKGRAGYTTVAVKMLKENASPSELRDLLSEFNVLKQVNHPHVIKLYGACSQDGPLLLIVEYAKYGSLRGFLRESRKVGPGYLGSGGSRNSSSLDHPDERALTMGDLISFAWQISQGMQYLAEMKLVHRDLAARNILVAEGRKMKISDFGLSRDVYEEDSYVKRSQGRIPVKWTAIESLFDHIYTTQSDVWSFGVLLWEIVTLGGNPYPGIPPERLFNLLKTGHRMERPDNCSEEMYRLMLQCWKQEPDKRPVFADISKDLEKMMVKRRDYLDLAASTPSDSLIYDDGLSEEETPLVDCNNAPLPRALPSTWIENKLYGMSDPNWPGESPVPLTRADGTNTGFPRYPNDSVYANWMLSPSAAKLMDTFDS
Sequence of JAK1 JH1 catalytic (human) (P23458 whole entry, looked up): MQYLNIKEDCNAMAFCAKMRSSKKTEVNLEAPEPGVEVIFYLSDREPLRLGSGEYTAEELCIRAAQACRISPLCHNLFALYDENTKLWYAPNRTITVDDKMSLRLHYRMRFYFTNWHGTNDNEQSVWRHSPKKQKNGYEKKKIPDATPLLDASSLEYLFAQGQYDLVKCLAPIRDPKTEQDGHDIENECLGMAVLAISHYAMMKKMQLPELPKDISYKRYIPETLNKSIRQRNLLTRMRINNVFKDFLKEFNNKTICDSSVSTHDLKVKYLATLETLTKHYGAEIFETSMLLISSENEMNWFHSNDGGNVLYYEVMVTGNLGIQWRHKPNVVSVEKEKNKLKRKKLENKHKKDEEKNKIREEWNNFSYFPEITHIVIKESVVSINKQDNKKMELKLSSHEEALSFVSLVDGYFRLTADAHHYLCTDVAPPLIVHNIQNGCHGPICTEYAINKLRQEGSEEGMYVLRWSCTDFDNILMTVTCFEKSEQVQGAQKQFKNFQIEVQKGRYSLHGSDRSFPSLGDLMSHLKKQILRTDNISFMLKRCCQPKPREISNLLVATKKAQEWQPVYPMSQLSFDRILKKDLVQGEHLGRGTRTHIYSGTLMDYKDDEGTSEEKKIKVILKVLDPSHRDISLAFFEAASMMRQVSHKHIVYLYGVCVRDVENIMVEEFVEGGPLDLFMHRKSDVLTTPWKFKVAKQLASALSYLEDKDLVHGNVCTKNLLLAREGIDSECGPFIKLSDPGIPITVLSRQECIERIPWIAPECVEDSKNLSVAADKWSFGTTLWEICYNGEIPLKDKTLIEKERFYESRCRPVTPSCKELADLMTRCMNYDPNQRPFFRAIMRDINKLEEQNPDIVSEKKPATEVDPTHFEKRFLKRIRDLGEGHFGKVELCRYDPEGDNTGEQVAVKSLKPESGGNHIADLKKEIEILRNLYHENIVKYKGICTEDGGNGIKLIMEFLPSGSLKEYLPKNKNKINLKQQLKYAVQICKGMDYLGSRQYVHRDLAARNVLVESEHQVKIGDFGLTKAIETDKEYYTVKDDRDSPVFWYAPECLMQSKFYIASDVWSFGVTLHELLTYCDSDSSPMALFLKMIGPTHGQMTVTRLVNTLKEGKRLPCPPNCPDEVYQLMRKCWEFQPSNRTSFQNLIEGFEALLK

inhibition of binding [1]: 41%
inhibition of binding [2]: 0%
inhibition of binding (AKT2 (human)): 0%
inhibition of binding (BMPR1B (human)): 0%
inhibition of binding (BRSK2 (human)): 0%
inhibition of binding (BTK (human)): 6%
inhibition of binding (CAMK1G (human)): 0%
inhibition of binding (CSNK1G3 (human)): 20%
inhibition of binding (CSNK2A1 (human)): 0%
inhibition of binding (DCLK1 (human)): 7%
inhibition of binding (DMPK (human)): 0%
inhibition of binding [3]: 4%
inhibition of binding [4]: 0%
inhibition of binding (EPHA1 (human)): 2%
inhibition of binding (ERBB2 (human)): 24%
inhibition of binding (ERBB3 (human)): 22%
inhibition of binding (ERBB4 (human)): 7%
inhibition of binding (FGFR4 (human)): 0%
inhibition of binding [5]: 12%
inhibition of binding [6]: 0%
inhibition of binding [7]: 6%
inhibition of binding (FRK (human)): 0%
inhibition of binding (HIPK2 (human)): 0%
inhibition of binding (IRAK1 (human)): 12%
inhibition of binding [8]: 38%
inhibition of binding (MAP2K1 (human)): 0%
inhibition of binding (MAP2K3 (human)): 0%
inhibition of binding (MAPK11 (human)): 0%
inhibition of binding (MAPK7 (human)): 0%
inhibition of binding (MARK1 (human)): 0%
inhibition of binding (MARK2 (human)): 0%
inhibition of binding (NEK2 (human)): 0%
inhibition of binding (NUAK2 (human)): 0%
inhibition of binding [9]: 13%
inhibition of binding (RPS6KA2 KD2 (human)): 16%
inhibition of binding (STK32C (human)): 0%
inhibition of binding [10]: 12%
inhibition of binding (ULK2 (human)): 0%
inhibition of binding (YES1 (human)): 0%
inhibition of binding (ZAP70 (human)): 4%
SMILES: Nc1cc(C(F)(F)F)c(-c2cc(N3CCOCC3)nc(N3CCOCC3)n2)cn1
